Results from patent US7608750B2, “Nonhuman model animal unresponsive to immunopotentiating synthetic compound” (Japan Science and Technology Agency, priority 2001, dated 2009).

Tests used:
[1] = system: BMDC derived from wild-type mice; experiment: Surface CD40, CD80, CD86 expression on bone marrow dendritic cells (flow cytometry), wild-type; assay type: cell-based, mouse; conditions: stimulated 24 h
Description: (§1) The reactivity to R-848 in dendritic cells derived from bone marrow (BMDC) derived from TLR7 knockout mice (TLR7KO) and the wild-type mice was examined. The bone marrow cells obtained from TLR7 knockout mice and wild-type mice were cultured for six days in RPMI-1640 medium supplemented with 10% fatal bovine serum and 10 ng/ml of GM-CSF (mouse granulocyte/macrophage colony stimulating factor). The obtained mouse undifferentiated dendritic cells were stimulated with R-848 or CpGDNA for 24 h, the cells were stained with biotinylated antibody to CD40, CD80 and CD86, and phycoerythrin (PE)-associated streptavidin was detected, which was analyzed by automated-cell analysing system (FACSCalibur). The results of examination of the expression of the molecules of CD40, CD80 and CD86 onto the surface of cells by flow cytometry are shown in FIG. 11. Similar to the case with CpGDNA, when BMDC derived from wild-type mice was stimulated with R-848, upregulation of CD40, CD80 and CD86 expression was induced. On the contrary, when BMDC derived from TLR7 knockout mice (TLR7KO) was stimulated with R-848, the expression of these molecules on cell surface was not enhanced.

[2] = system: genital herpes; conditions: actual treatment; cited from earlier work
[3] = system: wild-type mice; experiment: Serum cytokines after intraperitoneal R-848, wild-type mice; assay type: in vivo, mouse; conditions: 50 nmol intraperitoneally, ELISA
Description: (§2) It was examined in vivo whether TLR7 was involved in a response to R-848. The wild-type mice, MyD88 knockout mice or TLR7 knockout mice were injected intraperitoneally with 50 nmol of R-848, the sera were harvested after a predetermined period of time, and the concentration of IFN-α, TNF-α and IL12p40 in sera was determined by ELISA. […] On the contrary, the increment of these cytokines was not observed in TLR7 knockout mice.

[4] = system: BMDC derived from TLR7 knockout mice (TLR7KO); experiment: Surface CD40, CD80, CD86 expression on bone marrow dendritic cells (flow cytometry), TLR7 knockout; assay type: cell-based, mouse; conditions: stimulated 24 h
Description: as §1

[5] = system: splenic cells derived from wild-type mice; experiment: Splenic cell proliferation ([3H] thymidine incorporation), wild-type; assay type: cell-based, mouse; conditions: 5×10^4 cells, cultured 48 h
Description: (§3) As activated phenotypes were proliferated and expressed by stimulating B-lymphocytes with imidazoquinoline group compounds, the proliferation of splenic cells was examined (Cell. Immunol. 203, 55-62, 2000; J. Immunol. 165, 5552-5557, 2000). Splenic cells (5×10^4 cells) derived from TLR7 knockout mice (TLR7KO) and wild-type mice were stimulated with R-848 and CpGDNA at a predetermined concentration, cultured for 48 h (cultured by adding [^3H] thymidine for last eight hours), and measured the level of thymidine incorporation using a β scintillation counter. A mean value+/−S.D., obtained from representative experiment among triplicate experiments is shown.

[6] = system: macrophages derived from TLR7 knockout mice; experiment: Intracellular signalling (NF-κB EMSA, JNK and IRAK in vitro kinase assay) in macrophages, TLR7 knockout; assay type: cell-based, mouse; conditions: TLR7KO macrophages, 100 nM R-848
Description: (§4) Next, the activation of intracellular signaling cascade to an antiviral immune-modulator was examined. Peritoneal macrophages (2×10^6 cells) from TLR7 knockout mice (TLR7KO) and wild-type mice respectively stimulated with thioglycollic acid, were stimulated with 100 nM of R-848 or 1.0 μM of CpGDNA 1668 (CpG) for a certain period of time, nucleoprotein was extracted, the extract obtained with the specific probe including NF-κB associated-site was incubated, electrophoresed, visualized by autoradiography, and NF-κB activation was examined as DNA-associated protein by electrophoretic mobility shift assay (EMSA). In FIG. 12, an arrow indicates induced NF-κB complexes, and an arrow head indicates a free probe.
(§5) The functional role of TLR7 in transactivation of NF-κB reporter gene induced by R-848 was examined. HEK293 cells were transiently cotransfected with TLR7 expression plasmids derived from human, and luciferase activity was measured before and after R-848 stimulation. The peritoneal macrophages derived from TLR7 knockout mice (TLR7KO) and wild-type mice stimulated with thioglycollic acid were stimulated with 100 nm of R-848 or 1.0 μM of phosphothioate modified CpGDNA 1668 (CpG), all cell lysate were prepared, immunoprecipated with anti-JNK antibody, and JNK activity was examined by In Vitro Kinase Assay using GST-c-Jun fusion protein as a substrate. The same lysate was blotted with anti-JNK antibody. Moreover, the lysate was immunoprecipated with anti-IRAK, and kinase activity of IRAK was examined by In Vitro Kinase Assay. The same lysate was blotted with anti-IRAK antibody. […] It is important to activate TLR7-MyD88-dependent signal pathway for the effect of imidazoquinoline in vivo.

[7] = system: peritoneal macrophages from wild-type mice; experiment: Cytokine production by peritoneal macrophages (ELISA), wild-type; assay type: cell-based, mouse; conditions: 5×10^4 cells, presence or absence of 30 U/ml IFN-γ
Description: (§6) 2 ml of 4% thioglycollic acid medium (DIFCO) were injected into the intraperitoneals of the wild-type mice, TLR7 knockout mice (TLR7KO), MyD88 knockout mice (MyD88KO) and TLR9 knockout mice (TLR9KO), respectively, three days later, peritoneal exudate cells were isolated from intraperitoneal of each mouse, these cells were cultured in PRMI 1640 medium (GIBCO) added with 10% fatal bovine serum (GIBCO) at 37° C. for two hours, nonadherent cells were […] by washing with Hank's buffered salt solution (HBBS; GIBCO) at iced temperature, and the adherent cells were used as peritoneal macrophages in following experiment. Total RNA (10 μg) obtained from macrophages derived from the wild-type mice (+/Y) and TLR7 knockout mouse (TLR7KO) was electrophoresed, transferred onto a nylon membrane, and hybridized with a part of TLR7 DNA, and this membrane was rehybridized with β-actin probe. It was examined by the Northern blotting. From the results shown in FIG. 3, the expression of TLR7mRNA could not be found in TLR7 knockout mice.
(§7) In addition, the measurement of cytokine generated from peritoneal macrophages was executed as follows; […] peritoneal macrophages of 2×10^5 well or 5×10^4 well were cultured in 96-well plate respectively, and after stimulated with the above-mentioned reagents for 24 h, concentration of TNF-α, IL-12p40, IL-6 and/or IFN-α were measured by ELISA according to the manual.
(§8) Before examining the reactivity of TLR7 knockout mice to imiquimod and R-848 which are imidazoquinoline group compound, firstly imiquimod or R-848 were administered to BALB/c mice (wild-type) orally at the predetermined concentration, respectively, the concentration of IFN-α, TNF-α and IL-12 in serum were measured after two hours. […] The data is shown as a mean value+/−S.D. (N=3). Similarly, the ability of these compounds to activate immune cells via TLR was examined using imiquimod or R-848 respectively. The peritoneal macrophages (5×10^4 cells) from wild-type mice and MyD88 knockout mice prepared in example 2, were stimulated by imiquimod or R-848, in the presence or absence of 30 U/ml of IFN-γ, and the concentration of TNF-α and IL-12 produced by peritoneal macrophages were measured by ELISA. […] The data is shown as a mean value+/−S.D. (N=3).

[8] = system: peritoneal macrophages from MyD88 knockout mice; experiment: Cytokine production by peritoneal macrophages (ELISA), MyD88 knockout; assay type: cell-based, mouse; conditions: 5×10^4 cells, presence or absence of 30 U/ml IFN-γ
Description: as §6, §7, §8

[9] = system: MyD88 knockout mice; experiment: Serum cytokines after intraperitoneal R-848, MyD88 knockout mice; assay type: in vivo, mouse; conditions: 50 nmol intraperitoneally, ELISA
Description: as §2

[10] = system: splenic cells derived from TLR7 knockout mice (TLR7KO); experiment: Splenic cell proliferation ([3H] thymidine incorporation), TLR7 knockout; assay type: cell-based, mouse; conditions: 5×10^4 cells, cultured 48 h
Description: as §3

[11] = system: peritoneal macrophages derived from TLR7 knockout mice (TLR7KO); experiment: Cytokine production by peritoneal macrophages (ELISA), TLR7 knockout; assay type: cell-based, mouse; conditions: 5×10^4 cells, presence or absence of 30 U/ml IFN-γ, 24 h culture
Description: as §6, §7
Next, the peritoneal macrophages (5×10^4 cells) derived from TLR7 knockout mice (TLR7KO), TLR9 knockout mice (TLR9KO) and wild-type mice were stimulated with CpGDNA 1668 (phosphorothioate 1688). D19, AAC30, natural 1688 (phosphodiester 1688). genomic DNA derived from Escherichia coli, or genomic DNA derived from Micrococcus deikticus at of a predetermined concentration in the presence (+) or absence (−) of 30 U/ml of IPN-γ, and the concentration of IL-12p40 produced by production of peritoneal macrophages contained in cultured supernatant was measured by ELISA after 24 h of culture. The results are shown in FIG. 6 (in the figure, marks of * show detection limits and below). […]

[12] = system: macrophages derived from wild-type mice; experiment: Intracellular signalling (NF-κB EMSA, JNK and IRAK in vitro kinase assay) in macrophages, wild-type; assay type: cell-based, mouse; conditions: 100 nM R-848 or 1.0 μM CpGDNA 1668
Description: as §4, §5

[13] = system: BALB/c mice (wild-type); experiment: Serum cytokines after oral administration of imidazoquinolines; assay type: in vivo, mouse; conditions: after two hours, N=3
Description: as §8

[14] = system: TLR7 knockout mice; experiment: Serum cytokines after intraperitoneal R-848, TLR7 knockout mice; assay type: in vivo, mouse; conditions: 50 nmol intraperitoneally, ELISA
Description: as §2

[15] = molecular target: T1, TLR7 (Homo sapiens, UniProt Q9NYK1); experiment: NF-κB reporter gene (luciferase) in HEK293 cells transfected with TLR7 expression plasmids; assay type: cell-based; conditions: HEK293 cells transiently cotransfected with human TLR7 expression plasmids, before and after R-848 stimulation
T1 construct: expressed in transfected cells; host or cells: HEK293
T1 sequence (Q9NYK1 27-1049): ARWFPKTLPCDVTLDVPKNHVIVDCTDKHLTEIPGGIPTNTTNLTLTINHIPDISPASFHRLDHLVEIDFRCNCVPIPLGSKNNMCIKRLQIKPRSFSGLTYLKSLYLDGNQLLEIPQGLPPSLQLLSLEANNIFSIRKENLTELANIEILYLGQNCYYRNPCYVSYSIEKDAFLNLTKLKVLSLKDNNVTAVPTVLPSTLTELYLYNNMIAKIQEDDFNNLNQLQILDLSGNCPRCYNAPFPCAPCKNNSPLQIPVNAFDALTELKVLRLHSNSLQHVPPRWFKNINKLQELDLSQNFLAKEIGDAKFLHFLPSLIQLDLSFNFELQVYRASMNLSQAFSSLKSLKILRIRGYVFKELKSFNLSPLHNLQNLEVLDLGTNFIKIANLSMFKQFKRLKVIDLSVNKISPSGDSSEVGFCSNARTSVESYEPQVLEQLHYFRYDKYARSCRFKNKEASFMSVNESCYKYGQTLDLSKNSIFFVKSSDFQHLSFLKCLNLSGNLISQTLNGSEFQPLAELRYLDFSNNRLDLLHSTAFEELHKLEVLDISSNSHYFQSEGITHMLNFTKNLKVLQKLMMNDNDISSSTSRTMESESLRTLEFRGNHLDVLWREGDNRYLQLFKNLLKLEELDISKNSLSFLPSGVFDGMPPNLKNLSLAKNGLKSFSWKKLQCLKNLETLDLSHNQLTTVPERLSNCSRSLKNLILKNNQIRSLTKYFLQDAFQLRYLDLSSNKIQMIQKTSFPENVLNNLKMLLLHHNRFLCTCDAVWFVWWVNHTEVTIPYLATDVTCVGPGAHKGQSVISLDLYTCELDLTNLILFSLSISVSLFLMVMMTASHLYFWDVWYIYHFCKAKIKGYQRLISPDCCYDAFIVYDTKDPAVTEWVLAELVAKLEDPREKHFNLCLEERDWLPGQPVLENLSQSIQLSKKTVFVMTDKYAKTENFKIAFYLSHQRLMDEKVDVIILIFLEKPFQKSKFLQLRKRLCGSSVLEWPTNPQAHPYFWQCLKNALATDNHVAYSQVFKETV
Description: as §5

[16] = system: type 2 herpes simplex virus; conditions: cited from earlier work
[17] = system: NF-κB and MAP kinase; conditions: cited from earlier work
[18] = system: cytomegalovirus; conditions: cited from earlier work
[19] = system: various types of cells; conditions: cited from earlier work
[20] = system: animal model; conditions: cited from earlier work
[21] = system: human papilloma virus; conditions: actual treatment; cited from earlier work

CCOCc1nc2c(N)nc3ccccc3c2n1CC(C)(C)O [R-848, resiquimod]
CD40 expression on cell surface [1]: upregulation | CD80 expression on cell surface [1]: upregulation | CD86 expression on cell surface [1]: upregulation | treating genital herpes [2]: effective | concentration of IFN-α in sera [3]: increased significantly | concentration of IL12p40 in sera [3]: increased significantly | concentration of TNF-α in sera [3]: increased significantly | CD40 expression on cell surface [4]: not enhanced | CD80 expression on cell surface [4]: not enhanced | CD86 expression on cell surface [4]: not enhanced | proliferation of splenic cells ([3H] thymidine incorporation) [5]: showed proliferation depending on concentration | activation of c-Jun N terminal kinase (JNK) [6]: completely destructed | enhanced DNA avidity of NF-κB transcription (EMSA) [6]: completely destructed | phosphorylation of IRAK [6]: completely destructed | IL-12 produced by peritoneal macrophages [7]: in large amount | TNF-α produced by peritoneal macrophages [7]: in large amount | IL-12 produced by peritoneal macrophages [8]: hardly produced any cytokines | TNF-α produced by peritoneal macrophages [8]: hardly produced any cytokines | concentration of IFN-α in sera [9]: did not show any reactivity | concentration of IL12p40 in sera [9]: did not show any reactivity | concentration of TNF-α in sera [9]: did not show any reactivity | proliferation of splenic cells ([3H] thymidine incorporation) [10]: did not show proliferation | production of IL-6 by peritoneal macrophages [11]: not confirmed | production of IL-12p40 by peritoneal macrophages [11]: not confirmed | production of TNF-α by peritoneal macrophages [11]: not confirmed | activation of c-Jun N terminal kinase (JNK) [12]: induced | enhanced DNA avidity of NF-κB transcription (EMSA) [12]: induced | phosphorylation of IRAK [12]: induced | concentration of IFN-α in serum [13]: increased depending on applied dose | concentration of IL-12 in serum [13]: increased depending on applied dose | concentration of TNF-α in serum [13]: increased depending on applied dose | increment of IFN-α in sera [14]: not observed | increment of IL12p40 in sera [14]: not observed | increment of TNF-α in sera [14]: not observed | NF-κB-dependent promoter (luciferase activity) [15]: promoted

CC(C)Cn1cnc2c(N)nc3ccccc3c21 [imiquimod]
replication of type 2 herpes simplex virus [16]: inhibit the replication | stimulation of NF-κB and MAP kinase [17]: stimulates | IL-12 produced by peritoneal macrophages [7]: in large amount | TNF-α produced by peritoneal macrophages [7]: in large amount | IL-12 produced by peritoneal macrophages [8]: hardly produced any cytokines | TNF-α produced by peritoneal macrophages [8]: hardly produced any cytokines | replication of cytomegalovirus [18]: inhibit the replication | induction of cytokines such as IFN-α, IL-6 and IL-12 [19]: inducing cytokines such as IFN-α, IL-6 and IL-12 | antitumor activity [20]: antitumor activity | antivirus activity [20]: shows antivirus activity | concentration of IFN-α in serum [13]: increased depending on applied dose | concentration of IL-12 in serum [13]: increased depending on applied dose | concentration of TNF-α in serum [13]: increased depending on applied dose | treating pudendal wart (condyloma acuminatum) caused by human papilloma virus [21]: effective
